From the supplement of paper PMC10307832

What was measured:
Experiment in all cases: relative viability (nuclei count vs DMSO), 5 days (fraction); higher = more cells survive
Vorinostat + Pemetrexed = compound: O=C(CCCCCCC(=O)Nc1ccccc1)NO [Vorinostat] + Nc1nc2[nH]cc(CCc3ccc(C(=O)N[C@@H](CCC(=O)O)C(=O)O)cc3)c2c(=O)[nH]1 [Pemetrexed] (partner 0.2 µM)
Procedure, shortened: (§1)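 Dosing by pin tool came one day after lung cancer cell lines were seeded in 1536-well plates, using either one drug or a fixed anchor-drug dose plus five library-drug doses (not always all listed) in √10 steps. After 5 days, nuclei were counted on 4× images. Relative viability is treated-well nuclei count divided by vehicle-well nuclei count, and values are medians of duplicate plates.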

Vorinostat + Phenformin = compound: O=C(CCCCCCC(=O)Nc1ccccc1)NO [Vorinostat] + N=C(N)NC(=N)NCCc1ccccc1 [Phenformin] (partner 250 µM)
Procedure, shortened: as §1

Vorinostat + Trametinib = compound: O=C(CCCCCCC(=O)Nc1ccccc1)NO [Vorinostat] + CC(=O)Nc1cccc(-n2c(=O)n(C3CC3)c(=O)c3c(Nc4ccc(I)cc4F)n(C)c(=O)c(C)c32)c1 [Trametinib] (partner 0.02 µM)
Procedure, shortened: as §1

Vorinostat + Pictilisib = compound: O=C(CCCCCCC(=O)Nc1ccccc1)NO [Vorinostat] + CS(=O)(=O)N1CCN(Cc2cc3nc(-c4cccc5[nH]ncc45)nc(N4CCOCC4)c3s2)CC1 [Pictilisib] (partner 1 µM)
Procedure, shortened: as §1

Vorinostat + AZD7762 = compound: O=C(CCCCCCC(=O)Nc1ccccc1)NO [Vorinostat] + NC(=O)Nc1cc(-c2cccc(F)c2)sc1C(=O)N[C@H]1CCCNC1 [AZD7762] (partner 0.2 µM)
Procedure, shortened: as §1

Cell Line	relative viability (Vorinostat + Pemetrexed; first compound 0.253 µM)	relative viability (Vorinostat + Pemetrexed; first compound 0.8 µM)	relative viability (Vorinostat + Pemetrexed; first compound 2.53 µM)	relative viability (Vorinostat + Pemetrexed; first compound 8 µM)	relative viability (Vorinostat + Phenformin; first compound 0.253 µM)	relative viability (Vorinostat + Phenformin; first compound 0.8 µM)	relative viability (Vorinostat + Phenformin; first compound 2.53 µM)	relative viability (Vorinostat + Phenformin; first compound 8 µM)	relative viability (Vorinostat + Trametinib; first compound 0.253 µM)	relative viability (Vorinostat + Trametinib; first compound 0.8 µM)	relative viability (Vorinostat + Trametinib; first compound 2.53 µM)	relative viability (Vorinostat + Trametinib; first compound 8 µM)	relative viability (Vorinostat + Pictilisib; first compound 0.253 µM)	relative viability (Vorinostat + Pictilisib; first compound 0.8 µM)	relative viability (Vorinostat + Pictilisib; first compound 2.53 µM)	relative viability (Vorinostat + Pictilisib; first compound 8 µM)	relative viability (Vorinostat + AZD7762; first compound 0.253 µM)	relative viability (Vorinostat + AZD7762; first compound 0.8 µM)	relative viability (Vorinostat + AZD7762; first compound 2.53 µM)	relative viability (Vorinostat + AZD7762; first compound 8 µM)
EKVX	0.384	0.413	0.386	0.146	0.228	0.238	0.225	0.134	0.401	0.337	0.18	0.115	0.475	0.441	0.21	0.103	0.838	0.489	0.199	0.136
HCC-78	0.888	0.852	0.875	0.868	0.719	0.58	0.292	0.22	0.774	0.495	0.201	0.181	0.25	0.128	0.117	0.134	0.451	0.464	0.223	0.199
NCI-H1355	1.09	1.01	0.536	0.246	0.471	0.411	0.333	0.179	0.484	0.331	0.231	0.131	0.556	0.329	0.244	0.165	0.892	0.595	0.394	0.15
NCI-H596	0.503	0.465	0.412	0.346	0.838	0.587	0.474	0.272	0.876	0.632	0.426	0.235	0.355	0.357	0.316	0.277	1.13	0.732	0.543	0.384
LK-2	0.278	0.262	0.138	0.036	0.778	0.321	0.197	0.126	0.893	0.496	0.167	0.0907	0.48	0.379	0.211	0.132	0.334	0.373	0.126	0.0415
HOP-62	0.393	0.28	0.212	0.0997	0.815	0.592	0.319	0.114	0.509	0.406	0.16	0.0861	0.966	0.205	0.203	0.079	0.258	0.518	0.145	0.0514
BEN	0.712	0.572	0.474	0.145	0.297	0.215	0.146	0.0911	0.928	0.659	0.367	0.149	0.659	0.332	0.132	0.0393	0.645	0.661	0.439	0.125
NCI-H1755	0.458	0.382	0.285	0.177	0.646	0.579	0.413	0.204	0.791	0.77	0.602	0.219	0.47	0.368	0.173	0.138	0.478	0.402	0.276	0.163
NCI-H322M	0.764	0.603	0.569	0.355	0.94	0.761	0.452	0.284	0.595	0.501	0.552	0.408	0.537	0.541	0.386	0.317	0.56	0.565	0.408	0.304
NCI-H1651	0.614	0.577	0.377	0.0787	0.408	0.326	0.0932	0.0635	0.869	0.76	0.343	0.062	0.659	0.433	0.0763	0.0536	0.308	0.45	0.22	0.0691
NCI-H23	0.842	0.713	0.32	0.181	0.844	0.881	0.674	0.101	0.606	0.405	0.166	0.129	0.599	0.391	0.181	0.161	0.174	0.13	0.0979	0.0915
